# Measured values as given in patent US20100240641A1, “Aldosterone Synthase and/or 11B-hydroxylase Inhibitors” (priority 2006, published 2010).
# Experiments:
# aldosterone synthase = molecular target: T1, aldosterone synthase (Homo sapiens, UniProt P19099); experiment: In vitro aldosterone synthase inhibition: aldosterone production in Ang II-stimulated NCI-H295R cells; type: cell-based; conditions: read-out: AS IC50
# T1 construct: host or cells: NCI-H295R
# T1 sequence (P19099 25-503): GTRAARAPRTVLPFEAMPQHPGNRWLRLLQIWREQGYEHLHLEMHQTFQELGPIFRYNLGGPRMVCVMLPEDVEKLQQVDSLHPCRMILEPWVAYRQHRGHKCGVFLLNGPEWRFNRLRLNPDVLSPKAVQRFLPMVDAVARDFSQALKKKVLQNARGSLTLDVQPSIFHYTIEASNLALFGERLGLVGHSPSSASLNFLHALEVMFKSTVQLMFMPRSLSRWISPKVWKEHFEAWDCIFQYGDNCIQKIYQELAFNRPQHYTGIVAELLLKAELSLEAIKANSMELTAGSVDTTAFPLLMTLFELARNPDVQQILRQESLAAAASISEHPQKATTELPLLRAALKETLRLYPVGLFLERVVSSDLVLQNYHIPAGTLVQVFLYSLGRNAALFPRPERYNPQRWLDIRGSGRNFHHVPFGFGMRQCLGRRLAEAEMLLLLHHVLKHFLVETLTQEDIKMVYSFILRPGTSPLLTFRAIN
# From the text: In particular, the aldosterone synthase inhibitory activities in vitro can be determined by the following assay.
# Human adrenocortical carcinoma NCI-H295R cell line is obtained from American Type Culture Collection (Manassas, Va.). Insulin/transferrin/selenium (ITS)-A supplement (100×), DMEM/F-12, antibiotic/antimycotic (100×), and fetal calf serum (FCS) are purchased from Gibco (Grand Island, N.Y.). Anti-mouse PVT scintillation proximity assay (SPA) beads and NBS 96-well plates are obtained from Amersham (Piscataway, N.J.) and Corning (Acton, Mass.), respectively. Solid black 96-well flat bottom plates were purchased from Costar (Corning; NY). Aldosterone and angiotensin (Ang II) are purchased from Sigma (St. Louis, Mo.). D[1,2,6,7-^3H(N)]aldosterone was acquired from PerkinElmer (Boston, Mass.). Nu-serum was a product of BD Biosciences (Franklin Lakes, N.J.). The NADPH regenerating system, dibenzylfluorescein (DBF), and human aromatase Supersomes® are obtained from Gentest (Woburn, Mass.). […]
# Measurement of aldosterone activity can also be performed using a 96-well plate format. […] The amount of aldosterone in each sample is calculated by comparing with a standard curve generated using known quantities of the hormone.
# CYP11B1 = molecular target: T2, CYP11B1 (Homo sapiens, UniProt P15538); experiment: In vitro CYP11B1 inhibition: steroid release from NCI-H295R cells; type: cell-based; conditions: 10 nM compound, read-out: 11B1 % Inhibition @ 10 nM
# T2 construct: Thus, the NCl-H295R cells have Cyp11 B1 (steroid 11 p-hydroxylase); host or cells: NCI-H295R
# T2 sequence (P15538 25-503): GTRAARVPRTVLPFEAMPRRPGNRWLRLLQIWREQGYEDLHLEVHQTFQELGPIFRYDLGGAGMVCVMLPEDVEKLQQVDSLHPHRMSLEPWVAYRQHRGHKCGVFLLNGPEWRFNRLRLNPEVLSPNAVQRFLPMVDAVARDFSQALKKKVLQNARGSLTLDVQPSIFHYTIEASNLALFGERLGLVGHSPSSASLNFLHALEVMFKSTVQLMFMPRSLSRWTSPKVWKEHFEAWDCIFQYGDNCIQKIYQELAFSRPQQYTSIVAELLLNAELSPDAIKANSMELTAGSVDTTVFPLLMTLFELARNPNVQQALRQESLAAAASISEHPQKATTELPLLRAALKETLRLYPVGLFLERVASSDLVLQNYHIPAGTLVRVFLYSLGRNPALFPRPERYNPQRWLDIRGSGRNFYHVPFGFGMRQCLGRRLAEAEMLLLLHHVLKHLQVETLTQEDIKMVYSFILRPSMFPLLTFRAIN
# From the text: The in vitro inhibitory activities for CYP11B1 can be determined by the following assay.
# The cell line NCI-H295R was originally isolated from an adrenocortical carcinoma and has been characterized in the literature through the stimulable secretion of steroid hormones and the presence of the enymes essential for steroidogenesis. Thus, the NCl-H295R cells have Cyp11 B1 (steroid 11 p-hydroxylase). The cells show the physiological property of zonally undifferentiated human foetal adrenocortical cells which, however, have the capacity to produce the steroid hormones which are formed in the three, phenotypically distinguishable zones in the adult adrenal cortex. […]
# The excretion of aldosterone, cortisol, corticosterone and estradiol/estrone into the culture medium can be detected and quantified by commercially available, specific monoclonal antibodies in radioimmunoassays in accordance with the manufacturer's instructions.
# Inhibition of the release of certain steroids can be used as a measure of the respective enzyme inhibition by the added test compounds. The dose-dependent inhibition of enzymic activity by a compound is calculated by means of an inhibition plot which is characterized by an IC50. […]
IC50 (aldosterone synthase) [nM],inhibition at 0.01 µM (CYP11B1) [%],Structure (SMILES)
12,,"CCC1(c2ccc(C#N)cc2OC)C(=O)N(Cc2ccc(Cl)cc2)Cc2cncn21 (stereo not drawn) [Compound 1, 4-[7-(4-Chloro-benzyl)-5-ethyl-6-oxo-5,6,7,8-tetrahydro-imidazo[1,5-a]pyrazin-5-yl]-3-methoxy-benzonitrile]"
,100,"CCC1(c2ccc(C#N)cc2F)C(=O)N(Cc2ccc(F)cc2)Cc2cncn21 (stereo not drawn) [Compound 7, 4-[5-Ethyl-7-(4-fluoro-benzyl)-6-oxo-5,6,7,8-tetrahydro-imidazo[1,5-a]pyrazin-5-yl]-3-fluoro-benzonitrile]"
,98,"CCC1(c2ccc(C)cc2OC)C(=O)N(Cc2ccc(F)cc2)Cc2cncn21 (stereo not drawn) [Compound 8, 5-(2-Methoxy-4-methyl-phenyl)-5-ethyl-7-(4-fluoro-benzyl)-7,8-dihydro-imidazo[1,5-a]pyrazin-6-one]"
